Data on one substance can be found in patent publication US20250186597A1, “TARGETED IMMUNE ACTIVATION WITH IL-18 IMMUNOCYTOKINES” (BRIGHT PEAK THERAPEUTICS AG, priority 2023, published 2025).

Common to all, as to assay type: cell-based, human
Test [1] relates to PD-1 positive (transduced) KG-1 cells. The test can be described thus: IFN gamma secretion assay in PD-1 transduced KG-1 cells (Example 11). The protocol:
The KG-1 cell line was used to generate a PD-1 expressing cell line and furthermore, to measure IFNγ release upon incubation with IL-18 variants and corresponding IL-18 immunocytokines.
PD-1 expressing cell line generation: Briefly, KG-1 cells were transduced using lentiviral particles carrying the human PD-1 gene (PDCD1 NM_005018; Origene, CAT #: RC210364L3V) at a MOI (Multiplicity of Infection) of 30. Spinfection was performed at 1260 g during 90 min at 37° C. in the presence of 5 μg/ml of Polybrene and 10 mM of HEPES in complete culture media (RPMI, 10% FBS, 1% L-Glutamine). Five days after transduction, puromycin at a final concentration of 1 ug/ml was added to select for PD-1 positive cells. For culture maintenance, puromycin concentration was decreased to 0.5 μg/ml. Stable and homogenous expression of PD-1 was verified by surface staining (BD Pharmingen, #557860).
IFNγ release was assessed in PD-1 positive (transduced) KG-1 cells, as well as in the parental PD-1 negative cells. 0.5×10^5 cells were seeded into a 96-well U-bottom plate in culture media (RPMI, 10% FBS, 1% L-Glutamine) and stimulated with IL-18 variants/ICs for 20-24 h. The test items were diluted to 100 nM in culture medium, followed by 7 10-fold serial dilutions. The lowest concentration assessed was […]. After incubation, IFNγ release was measured using the LEGENDplex custom human mix and match KIT (Biolegend LEGENDplex™ Human IFN-γ Capture Bead B5, 13X #740942, LEGENDplex™ HU Essential Immune Response Panel Detection Abs, #740931, LEGENDplex™ Buffer Set A #740368). To this end, cell culture supernatant was collected and diluted 1:1 with Assay Buffer. Fluorescence measurements were done with a Quanteon Flow Cytometer from Acea Biosciences. For analysis, MFI values (median fluorescence intensity) were exported and plotted against concentrations used. The EC50 values (half maximal effective concentration) were calculated based on a variable slope and four parameter analysis using GraphPad PRISM software version 9.

In test [2] the test system is PD-1positive transduced NK-92 cells. The test is described as follows: IL-18BP mediated inhibition of IFN gamma secretion in PD-1 positive transduced NK-92 cells (Example 18). The protocol:
(§1) To characterize the resistance of anti-PD1-IL18 immunocytokines (IC) on PD-1 positive cells, the NK-92 cell line was used to generate a PD-1 expressing cell line and furthermore, to measure the inhibition of IFN[…] release upon incubation with IL-18 variants and ICs in the presence of increasing quantities of human IL-18BP.
(§2) On the day of experiment, parental PD-1^negative and PD-1^positive transduced cells were harvested and washed with PBS 1× and resuspended in medium (w/o IL-2) containing 1 ng/ml of recombinant human Interleukin-12 (SinoBiologicals, Cat #CT011-H08H). After counting, cells were seeded at 100 000 cells/well in a 384 well culture plate and incubated at 37° C./5% CO2. When indicated, cells were preincubated with anti-PD-1 antibody LZM-009 at 17 uM during 30 min at 37° C. […]
(§3) After 16-20 h incubation at 37° C./5% CO2, 5 μl of supernatant were carefully transferred to a 384 microwell OptiIPlate (Perkin Elmer; Cat #6007270) and Interferon-gamma (IFNγ) levels measured using the Human IFNγ AlphaLISA Assay Kit (Perkin Elmer, Cat #AL217C). […] AlphaLISA signal was then measured on an Enspire plate reader (Perkin Elmer) using 680 and 615 nm as excitation and emission wavelengths respectively. Half maximal inhibitory concentration (IC50) was calculated based on a variable slope, four parameter analysis using GraphPad PRISM software.

Test [3] deals with parental PD-1negative NK-92 cells. The test can be described thus: IL-18BP mediated inhibition of IFN gamma secretion in parental PD-1 negative NK-92 cells (Example 18). Particulars: IL-18BP-mediated inhibition of IFNγ secretion, IL-18 analyte 1 nM. The protocol: as §1, §2, §3
The next test relates to NK92 cells. The test can be described thus: IFN gamma secretion assay in NK92 cells (Example 10). Conditions: IFNγ secretion, 1 ng/ml IL-12. As for the experimental part:
The IFNγ-secretion stimulating activity of the unconjugated IL-18 variants and corresponding IL-18 immunocytokines was evaluated on NK92 cell line. The NK cell line NK-92 derived from a patient with lymphoma (ATCC, Cat #CRL-2407) was cultured in aMEM medium supplemented with 12.5% FCS, 12.5% horse serum (HS), 50 uM B-mercaptoEthanol, and 2 ng/ml of recombinant Human Interleukin-2 (IL-2).
On the day of experiment, cells were harvested and washed with aMEM medium without IL-2 and resuspended in medium (w/o IL-2) containing 1 ng/ml of recombinant human Interleukin-12 (SinoBiologicals, Cat #CT011-H08H). After counting, cells were seeded at 100 000 cells/well in a 384 well titer plate and incubated at 37° C./5% CO2. Sixteen 4-fold serial dilutions of IL-18 analytes were prepared in aMEM medium—1 ng/ml IL-12 and were added to the NK-92 cells. […]
After 16-20 h incubation at 37° C./5% CO2, 5 μl of supernatant were carefully transferred to a 384 microwells OPTIPlate (Perkin Elmer; Cat #6007270) and Interferon-gamma (IFNγ) levels measured using the Human IFNγ AlphaLISA Assay Kit (Perkin Elmer, Cat #AL217C). […] AlphaLisa signal was then measured on an Enspire plate reader (Perkin Elmer) using 680 and 615 nm as excitation and emission wavelengths respectively. Half maximal effective concentration (EC50) was calculated based on a variable slope, four parameter analysis using GraphPad PRISM software.

In general, EC50 refers to the concentration giving half of the maximal effect. As a reminder, the IC50 is the point on the concentration scale where inhibition reaches its midpoint. For “SEQ ID NO: 1: Native sequence of human IL-18 (bioactive form) [reference compound]”, the EC50 stood at 0.297 nM in test [1] (IFNγ secretion, PD-1 transduced KG-1) and 0.374 nM in the test on NK92 cells. In addition, in test [1] (KG-1 cells), the “PD-1^neg/PD-1^pos EC50 ratio” value worked out at 1.298. Further, the IC50 stood at 2.67 nM in test [2] (IL-18BP-mediated inhibition of IFNγ secretion, IL-18 analyte 1 nM) and 2.97 nM in test [3]. The “PD-1^pos/PD-1^neg IC50 ratio” value in test [2] (NK-92 cells) came to 1.2.
